From BigSolDB 2.1

O=C(O)/C=C/c1ccc(O)cc1
solubility (mole fraction)
Settings	in acetone	in ethanol	in ethyl acetate	in isobutanol	in isopropanol	in methanol	in methyl acetate	in n-butanol	in n-propanol
293.15 K	0.0383	0.0409	0.0113	0.0193	0.0294	0.036	0.0146	0.0323	0.0334
298.15 K	0.0428	0.0456	0.0128	0.0226	0.0331	0.0395	0.0176	0.0371	0.0373
303.15 K	0.0468	0.0507	0.0144	0.0256	0.0373	0.0438	0.0205	0.0432	0.0429
308.15 K	0.0516	0.0552	0.0162	0.0295	0.0417	0.0484	0.0244	0.0503	0.0478
313.15 K	0.0574	0.0614	0.0183	0.0332	0.0462	0.053	0.0292	0.0582	0.0525
318.15 K	0.0619	0.0666	0.0205	0.0371	0.0511	0.0573	0.034	0.0647	0.0588
323.15 K	0.0685	0.0725	0.0229	0.0425	0.0562	0.063	0.0394	0.0731	0.0652
328.15 K	0.0756	0.0785	0.0256	0.0483	0.0617	0.0693	0.0457	0.0823	0.0714
333.15 K	0.0825	0.0861	0.0286	0.0535	0.067	0.0757	0.0519	0.0924	0.0791
